The source of these data is PMC5870190, “A three-in-one-bullet for oesophageal cancer: replication fork collapse, spindle attachment failure and enhanced radiosensitivity generated by a ruthenium(II) metallo-intercalator” (Chemical Science, 2017).

Data set [1] concerns OE33 human oesophageal adenocarcinoma. The experiment in a line: MTT assay, OE33 cells. The format is cell-based. As to the method:
(§1) MTT assay. OE21, FLO-1 or hSAEC1-KT cells were seeded in 96 well plates at 20,000 cells/well (for 24 h treatment) or 10,000 cells/well (for 72 h treatment) and allowed to adhere for 24 h before treatment. OE33 cells were seeded in 48 well plates at 40,000 cells/well (24 h treatment) or 20,000 cells/well (72 h treatment). Cancer cell lines were treated with chemicals dissolved in RPMI media for consistency. After incubation, 0.5 mg/ml MTT (thiazolyl blue tetrazolium bromide) dissolved in serum-free medium was added for 60 minutes and the formazan product eluted using acidified isopropanol.
(§2) The absorbance at 540 nm was quantified by plate reader (reference wavelength 650 nm). The metabolic activity of the cell population was determined as a percentage of a negative (solvent) control. […]
(§3) For the determination of mutation induction, from the untreated and each treated condition, 2x10^5 cells were plated in 10 x 100 mm dishes in selective media (regular media
A general note: Tetrazolium assays rely on reduction of a dye to a coloured formazan, in cell work by metabolically active cells.

In the next data set the test system is OE21 cells. Kind of data set: Western blotting of DNA damage response (DDR) markers. It counts as cell-based, human. Conditions: OE21, 24 h treatment. Here is the method:
phototoxic contribution to bio-activity. Doxorubicin (Sigma) was prepared in doubly-distilled water (10 mg/mL, 17.4 mM).
[Ru(phen)2(dppz)]2+ (2 mM) was prepared in doubly-distilled water. […]
Western blotting. Treated samples were washed with cold PBS and lysed in RIPA (radioimmunoprecipitation assay) buffer containing protease inhibitors (10 μg/mL leupeptin, 2 μg/mL pepstatin, 50 μg/mL antipain, 2 μg/mL aprotinin, 20 μg/mL chyprostatin, 2 μg/mL benzamidine, 1 mM phenylmethanesulfonyl fluoride) and phosphatase inhibitors (50 mM NaF, 1 mM Na3VO4 and 20 mM β-glycerophosphate). Protein content was determined by BCA assay. Aliquots of cell lysates (10-50 μg total protein) were prepared in standard Laemmli buffer, heated at 95 °C for 5 minutes and resolved by NuPAGE® 4–12% Bis-Tris gels and LDS-PAGE. Gels were transferred onto nitrocellulose membrane and probed with primary antibodies in 5% BSA (bovine serum albumin) solutions at the following dilutions: 1/1000 dilution for majority of Cell Signaling antibodies and γH2AX. 1/500 for anti-p-ATR and anti-cleaved caspase 3. 1/200 anti-Chk1. 1/5000-1/10,000 anti- α-tubulin or β-actin.
Reactions were visualised with a suitable secondary antibody conjugated with horseradish peroxidase (1/5000 dilution, Thermo). […]

For data set [2] the following is noted: cited from earlier work.
The subject of data set [3] is OE21 human oesophageal squamous cell carcinoma. The experiment in a line: MTT assay, OE21 cells. It counts as cell-based. To be noted: MTT. Here is the method:
as §1, §2, §3

Data set [4] relates to FLO-1 human oesophageal adenocarcinoma. The experiment in a line: MTT assay, FLO-1 cells. The format is cell-based. Here is the method: as §1, §2, §3

In the case of [Ru(phen)2(dppz)]^2+, the IC50 (as a rule, the concentration that gives 50% inhibition) was over 100 µM in data set [1] (OE33, 24 h constant exposure); over 100 µM in data set [1] (OE33, 72 h constant exposure); over 100 µM in data set [3] (OE21, 24 h constant exposure); over 100 µM in data set [3] (OE21, 72 h constant exposure); over 100 µM in data set [4] (FLO1, 24 h constant exposure); 34 ± 5.7 µM in data set [4] (FLO1, 72 h constant exposure). Also, in the data set with OE21 cells, the “DDR activation (γH2AX immunoblotting)” value is “no evidence of DDR activation”. For the same substance, the “log P” value in data set [2] is recorded as “–1.48”.
